This passage reports T/C results from PubChem BioAssay AID248 (DTP/NCI, 2004).

For this test, the system named is L1210 leukemia ip in BDF1 mice, survival T/C. The experiment in a line: NCI In Vivo Anticancer Drug Screen. Data for tumor model L1210 Leukemia (intraperitoneal) in B6D2F1 (BDF1) mice. The note with it: endpoint: mean survival time, higher = longer survival. The essentials: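 Antitumor effect is assessed in tumor-bearing animals. Survival in the compound arm is compared with a vehicle-dosed control arm and expressed as their quotient.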

The mark [1] stands for this setting: dose: 100.0 mg/kg/injection, schedule: Q04DX003 (ip), vehicle: saline with Tween-80.
Setting [2] is: dose: 200.0 mg/kg/injection, schedule: Q04DX003 (ip), vehicle: saline with Tween-80.
The mark [3] stands for this setting: dose: 400.0 mg/kg/injection, schedule: Q04DX003 (ip), vehicle: saline with Tween-80.
Where [4] appears, read: dose: 100.0 mg/kg/injection, schedule: Q01DX009 (ip), vehicle: saline.
Where [5] appears, read: dose: 100.0 mg/kg/injection, schedule: Q04DX002 (ip), vehicle: saline.
The mark [6] stands for this setting: dose: 100.0 mg/kg/injection, schedule: Q04DX003 (ip), vehicle: saline.
Where [7] appears, read: dose: 200.0 mg/kg/injection, schedule: Q01DX009 (ip), vehicle: saline.
Where [8] appears, read: dose: 200.0 mg/kg/injection, schedule: Q04DX002 (ip), vehicle: saline.
[9] abbreviates: dose: 200.0 mg/kg/injection, schedule: Q04DX003 (ip), vehicle: saline.
Where [10] appears, read: dose: 400.0 mg/kg/injection, schedule: Q01DX009 (ip), vehicle: saline.
Where [11] appears, read: dose: 400.0 mg/kg/injection, schedule: Q04DX003 (ip), vehicle: saline.
[12] abbreviates: dose: 75.0 mg/kg/injection, schedule: Q01DX001 (ip), vehicle: saline.
Setting [13] is: dose: 100.0 mg/kg/injection, schedule: Q01DX001 (ip), vehicle: carboxymethylcellulose (CMC).
[14] abbreviates: dose: 200.0 mg/kg/injection, schedule: Q01DX001 (ip), vehicle: carboxymethylcellulose (CMC).
Where [15] appears, read: dose: 50.0 mg/kg/injection, schedule: Q01DX001 (ip), vehicle: saline.
[16] abbreviates: dose: 200.0 mg/kg/injection, schedule: Q01DX001 (ip), vehicle: saline.
[17] abbreviates: dose: 100.0 mg/kg/injection, schedule: Q01DX009 (ip), vehicle: saline with Tween-80.
Where [18] appears, read: dose: 200.0 mg/kg/injection, schedule: Q01DX009 (ip), vehicle: saline with Tween-80.
Where [19] appears, read: dose: 400.0 mg/kg/injection, schedule: Q01DX009 (ip), vehicle: saline with Tween-80.

“And” between values parts separate entries of the source, which are not always exact repeats. Equal entries are not always repeated. Inconclusive results and toxic doses are left out. Square brackets hold non-standard residues; d marks the D form. Peptide text beside a SMILES is read from it. ξ: configuration not given here. ξV = CC(C)C(N)C(=O)O

As to `Nc1nc(SCc2ccccn2)c2ncn(C3OC(CO)C(O)C3O)c2n1` (stereo not drawn), the T/C was 106 % of control (dose: 6.25 mg/kg/injection, schedule: Q01DX Z (ip), vehicle: methylcellulose (MC)); 104 % of control (dose: 12.5 mg/kg/injection, schedule: Q01DX Z (ip), vehicle: methylcellulose (MC)); 112 % of control (dose: 25.0 mg/kg/injection, schedule: Q01DX Z (ip), vehicle: methylcellulose (MC)).

For `CC(=O)CC(C)=Nc1ccc([N+](=O)[O-])cc1`, the T/C reads like this: under setting [1], 101 % of control; under setting [2], 103 % of control; under setting [3], 89 % of control.

As to `O=C(CCl)Nc1ncc([N+](=O)[O-])s1`, the T/C runs as follows: (dose: 12.5 mg/kg/injection, schedule: Q04DX003 (ip), vehicle: saline with Tween-80) 94 % of control; (dose: 25.0 mg/kg/injection, schedule: Q04DX003 (ip), vehicle: saline with Tween-80) 91 % of control; (dose: 50.0 mg/kg/injection, schedule: Q04DX003 (ip), vehicle: saline with Tween-80) 87 % of control.

Regarding `CC(C)C(NC(=O)CN)C(=O)O` (stereo not drawn) (H-Gly-[ξV]-OH), the T/C runs as follows: (dose: 50.0 mg/kg/injection, schedule: Q04DX002 (ip), vehicle: saline) 107 % of control; under setting [4], 98 % of control; under setting [5], 110 % of control; under setting [6], 97 % of control; under setting [7], 111 % of control; under setting [8], 103 % of control. Also, the T/C reads like this: under setting [9], 124 % of control; under setting [10], 112 % of control; under setting [11], 97 % of control.

`Cc1cc(Br)c(N(C=O)N=O)c(Br)c1`: the T/C runs as follows: under setting [12], 101 % of control; (dose: 150.0 mg/kg/injection, schedule: Q01DX001 (ip), vehicle: saline) 104 % of control.

In the case of `CCC1=C/C(=C/c2ccc([N+](=O)[O-])cc2)C(=O)S1`, the T/C is 87 % of control (dose: 100.0 mg/kg/injection, schedule: Q01DX001 (ip), vehicle: saline with Tween-80); 87 % of control (dose: 200.0 mg/kg/injection, schedule: Q01DX001 (ip), vehicle: saline with Tween-80); 87 % of control (dose: 400.0 mg/kg/injection, schedule: Q01DX001 (ip), vehicle: saline with Tween-80).

With `O=S(=O)(OCCOS(=O)(=O)c1ccccc1)c1ccccc1`, the T/C is 115 % of control (dose: 100.0 mg/kg/injection, schedule: Q04DX002 (ip), vehicle: Klucel (hydroxypropylcellulose) (HPC)); 107 % of control (dose: 200.0 mg/kg/injection, schedule: Q04DX002 (ip), vehicle: Klucel (hydroxypropylcellulose) (HPC)); 100 % of control (dose: 400.0 mg/kg/injection, schedule: Q04DX002 (ip), vehicle: Klucel (hydroxypropylcellulose) (HPC)).

As to `Cn1nc(SCc2ccccc2)c(=O)n(C(c2ccccc2)c2ccccc2)c1=O`, the T/C is, setting by setting: under setting [13], 104 % of control; under setting [14], 93 % of control.

With `C=C(C)C1CCC2(C=O)CCC3(C)C(CCC4C5(C)CCC(O)C(C)(C)C5CCC43C)C12` (stereo not drawn), the T/C (dose: 18.75 mg/kg/injection, schedule: Q01DX009 (ip), vehicle: Klucel (hydroxypropylcellulose) (HPC)) was 100 % of control; the T/C (dose: 37.5 mg/kg/injection, schedule: Q01DX009 (ip), vehicle: Klucel (hydroxypropylcellulose) (HPC)) was 93 % of control; the T/C (dose: 75.0 mg/kg/injection, schedule: Q01DX009 (ip), vehicle: Klucel (hydroxypropylcellulose) (HPC)) was 89 % of control.

Turning to `O=C1COc2ccccc21`, the T/C reads like this: under setting [15], 97 % of control; (dose: 100.0 mg/kg/injection, schedule: Q01DX001 (ip), vehicle: saline) 100 % of control; under setting [16], 100 % of control; (dose: 400.0 mg/kg/injection, schedule: Q01DX001 (ip), vehicle: saline) 100 % of control.

For `CC(C)(COC(=O)c1ccc(N)cc1)NC1CCCCC1`, the T/C under setting [12] was 96 % of control.

As for `O=C(O)c1cc(Cl)cc2c1-c1ccc(Cl)cc1C2Br` (stereo not drawn), the T/C is 96 % of control (dose: 18.7 mg/kg/injection, schedule: Q01DX009 (ip), vehicle: carboxymethylcellulose (CMC)); 98 % of control (dose: 75.0 mg/kg/injection, schedule: Q01DX001 (ip), vehicle: carboxymethylcellulose (CMC)); 91 % of control (dose: 150.0 mg/kg/injection, schedule: Q01DX001 (ip), vehicle: carboxymethylcellulose (CMC)).

On to `O=C1CC2=CCCCc3cccc1c32`, for which the T/C runs as follows: under setting [13], 93 % of control; under setting [14], 93 % of control; (dose: 400.0 mg/kg/injection, schedule: Q01DX001 (ip), vehicle: carboxymethylcellulose (CMC)) 93 % of control.

As to `OC(CNc1ccc(Cl)cc1)CN1CCOCC1` (stereo not drawn), the T/C was 96 % of control under setting [6] and 89 % of control under setting [9].

For `OCc1ccn2c1[C@@H](O)CC2`, the T/C (dose: 6.25 mg/kg/injection, schedule: Q01DX009 (ip), vehicle: saline) is 107 % of control; the T/C (dose: 12.5 mg/kg/injection, schedule: Q01DX009 (ip), vehicle: acetone) is 100 % of control; the T/C (dose: 12.5 mg/kg/injection, schedule: Q01DX009 (ip), vehicle: saline) was 96 % of control; the T/C (dose: 25.0 mg/kg/injection, schedule: Q01DX001 (ip), vehicle: saline) was 101 % of control and 107 % of control; the T/C (dose: 25.0 mg/kg/injection, schedule: Q01DX009 (ip), vehicle: acetone) is 111 % of control; the T/C (dose: 25.0 mg/kg/injection, schedule: Q01DX009 (ip), vehicle: saline) was 110 % of control. Further, the T/C under setting [15] is 112 % of control; the T/C (dose: 50.0 mg/kg/injection, schedule: Q01DX009 (ip), vehicle: saline) is 153 % of control; the T/C under setting [4] was 121 % of control and 89 % of control; the T/C under setting [16] is 112 % of control.

For `O=C(CCl)Nc1cc(Cl)c(Cl)cc1Cl`, the T/C is, setting by setting: under setting [1], 97 % of control; under setting [2], 97 % of control; under setting [3], 106 % of control.

Turning to `CCOC(=O)c1c(C)cc(O)cc1O`, the T/C reads like this: under setting [17], 114 % of control; under setting [18], 106 % of control; under setting [19], 102 % of control.

As to `Cc1ccc(C2OC23CC(C)(C)c2ccccc2C3=O)cc1` (stereo not drawn), the T/C reads like this: under setting [1], 93 % of control; under setting [2], 96 % of control; under setting [3], 93 % of control.

`CC1(C)CCS1(=O)=O`: the T/C is 100 % of control under setting [5]; 100 % of control under setting [8]; 100 % of control (dose: 400.0 mg/kg/injection, schedule: Q04DX002 (ip), vehicle: saline).

On to `O=S1(=O)CC2(N3CCCCC3)CCCCC21` (stereo not drawn), for which the T/C (dose: 5.0 mg/kg/injection, schedule: Q01DX009 (ip), vehicle: saline) was 94 % of control and the T/C (dose: 10.0 mg/kg/injection, schedule: Q01DX009 (ip), vehicle: saline) was 96 % of control.

As for `O=C(O)c1ccc2c(c1)C(Br)(Br)C2(Br)Br`, the T/C is 98 % of control under setting [17], 101 % of control under setting [18] and 103 % of control under setting [19].

`Cc1cccc(OCCOC(=O)Nc2ccccc2C(F)(F)F)c1`: the T/C (dose: 100.0 mg/kg/injection, schedule: Q04DX003 (ip), vehicle: Klucel (hydroxypropylcellulose) (HPC)) was 87 % of control; the T/C (dose: 200.0 mg/kg/injection, schedule: Q04DX003 (ip), vehicle: Klucel (hydroxypropylcellulose) (HPC)) is 88 % of control; the T/C (dose: 400.0 mg/kg/injection, schedule: Q04DX003 (ip), vehicle: Klucel (hydroxypropylcellulose) (HPC)) was 90 % of control.

Regarding `NC(=O)N1OCC(N)C1=O` (stereo not drawn), the T/C under setting [4] was 101 % of control; the T/C under setting [6] was 108 % of control; the T/C under setting [7] is 87 % of control; the T/C under setting [9] is 98 % of control; the T/C under setting [10] was 95 % of control; the T/C under setting [11] was 97 % of control.

`Nc1cc(N)ncn1`: the T/C (dose: 25.0 mg/kg/injection, schedule: Q01DX009 (ip), vehicle: Klucel (hydroxypropylcellulose) (HPC)) is 101 % of control; the T/C (dose: 50.0 mg/kg/injection, schedule: Q01DX009 (ip), vehicle: Klucel (hydroxypropylcellulose) (HPC)) is 98 % of control; the T/C (dose: 100.0 mg/kg/injection, schedule: Q01DX009 (ip), vehicle: Klucel (hydroxypropylcellulose) (HPC)) is 102 % of control.
